From a melting point compilation (Tetko et al.) come the findings set out here.

In turn, `Cc1c(-c2ccccc2)sc2ncnc(O)c12` gave a melting point of 247 to 249 °C.
The same measure for `CCNC(=O)CC#N`: 73 to 74 °C.
`CC(C)(Oc1ccc(C#N)cc1)C(=O)O` displayed a melting point of 117 to 120 °C.
For `CCOc1ccc(CC#N)cc1`, the melting point is 44 to 47 °C.
The same measure for `Cc1cc(Br)cc(Cl)c1N`: 38.5 °C.
The same measure for `O=C(O)c1cc(C(=O)O)cc(C(=O)O)c1`: 380 °C.
As for `Cc1ccccc1C(=O)Cc1ccccc1C(=O)OC(C)(C)C`, the melting point fell in the range of 30 to 36 °C.
Next, `CC1=C(C(=O)OC(C)C)C(c2ccco2)NC(=O)N1` (stereo unspecified): 205 °C; `CC(=O)CC(=O)Nc1ccccc1C`: 105 °C; `N#CCCc1ccc(O)cc1`: 56 °C.
Next, `Nc1nc(O)nc2[nH]ncc12`: 320 °C.
Next, `CC12CCC3C(CCC4CC5(CCC43C)OCCO5)C1CCC2O` (stereo unspecified): 212 °C.
Compound `N#CC(c1ccc(Cl)nn1)c1c(Cl)cccc1Cl` (stereo unspecified) had a melting point of 124 to 131 °C.
Next, `Cc1ccccc1N=Nc1c(N)ccc2ccccc12`: 126 °C; `O=C(O)CC[C@H]1CC[C@H](CCC(=O)O)C1=O`: 121 °C.
Next, `O=C(O)CC=Cc1ccccc1`: 87 °C; `COC(=O)C1=NC(C)(C)[N+]([O-])=C1`: 80 to 83 °C; `CC(=O)O[C@@H](C(=O)O)c1ccccc1`: 97 °C.
On to `CCC(C)OC(=O)C1=C2c3ncccc3ON2C(Cl)C(Cl)C1Cl` (stereo unspecified), for which the melting point came out at 97 °C.
Next, `COc1ccc2ncccc2c1`: 26.5 °C.
Next, `CC(=O)Nc1ccc(Br)c(C(F)(F)F)c1`: 116 to 119 °C.
Next, `Oc1ccc(S)cc1`: 34 °C; `CC(=O)N1N=C2c3ccccc3CCC2C1c1ccc(Cl)cc1` (stereo unspecified): 182 to 183 °C.
`CC(CC(=O)O)C1CCC2C3C=CC4CC(O)CCC4(C)C3CC(O)C12C` (stereo unspecified) yielded a melting point of 181 °C.
Consider `O=C1C(C(O)c2ccccc2Cl)C(C(F)(F)F)=NN1c1ccccc1` (stereo unspecified), for which the melting point was found to be 251 °C.
As to `Cc1ccccc1/C=C(\C#N)c1nc2ccccc2[nH]1`, the melting point lay within 210 to 211 °C.
The same measure for `C1CCN(C2CCNCC2)CC1`: 68 °C; for `CC1(C)CCC(Cc2ccc(Cl)cc2)C1(O)Cn1cncn1` (stereo unspecified): 112 °C; for `CCC1CN2CCC1CC2C(O)c1ccnc2ccccc12` (stereo unspecified): 268 °C.
Next, `O=C(O)/C=C/c1ccc2ccc(=O)[nH]c2c1`: 330 °C; `Nc1ccc(F)cc1N`: 86 to 88 °C.
The same measure for `O=C1C2CC3CC(C2)CC1C3`: 286 °C; for `O=C(O)CCCCCCCCCCCCC(=O)O`: 127 °C; for `Cc1ccc2ccc(Cl)cc2n1`: 74 to 78 °C.
`N#CC(C#N)=C1Sc2nc3ccccc3nc2S1` showed a melting point of 221 °C.
Next, `CN(C)C=C(C=O)c1ccccc1[N+](=O)[O-]`: 119 to 120 °C; `CNC(=O)ON=C(CSC)C(C)(C)C`: 57 °C.
In the case of `Cc1cc(CCl)c(CCl)cc1C`, the melting point lay in the range of 104 to 106 °C.
The same measure for `CC1=NN(c2ccc(C)cc2)C(=O)C1`: 138 °C.
Next, `C[Si](O)(c1ccccc1)c1ccccc1`: 167 °C; `CCCCCCCCCCOC(=O)c1ccccc1C(=O)OCCCCCC`: -4 °C.
Regarding `N#CCN1C(=O)c2ccccc2S1(=O)=O`, the melting point lay in the range of 142 to 143 °C.
Next, `OCC(O)C(O)C(O)C(O)CO` (stereo unspecified): 190 °C.
Turning to `O=C1C=CC(=O)C(Cl)=C1`, the melting point is 52 to 57 °C.
Next, `COc1cc(C)c(Cl)cc1S(=O)(=O)Cl`: 127 °C.
`COc1cc(C(=O)c2ccc(-c3ccccc3)cc2)c([N+](=O)[O-])cc1OC` gave a melting point of 144 to 145 °C.
`CC(C)CC1=CC(=Cc2ccc(-c3ccc(Br)cc3)o2)C(=O)O1` registered a melting point of 107 to 108 °C.
The same measure for `COc1cc(C2Nn3c(nnc3-c3cccnc3)S2)ccc1O` (stereo unspecified): 216 °C.
Next, `OCC1CCC(n2cnc3c(O)ncnc32)O1` (stereo unspecified): 175 °C; `CC1(C)OC(=O)C(=C2CCCN2)C(=O)O1`: 171 to 175 °C; `CC(C)(C(=O)O)n1nnc2ccccc21`: 182 °C.
Next, `O=C1C(=O)c2c3ccccc3cc3cccc1c23`: 268 to 270 °C; `CC(=O)c1cc(F)cc(F)c1O`: 109 to 110 °C.
Turning to `CCOC(=O)[C@]12C[C@@H](c3ccccc3)c3ccccc3[C@H]1c1ccccc1OC2=O`, the melting point amounted to 162 °C.
Next, `Cc1nc(S(=O)(=O)Cl)cn1C`: 91 to 94 °C; `CCNc1nc(Cl)nc(NC(C)(C)C#N)n1`: 168 °C; `COc1ccccc1C1OC(=O)CC1C(=O)O` (stereo unspecified): 124 to 125 °C.
The same measure for `C#CC(=C)C`: -113 °C; for `Cn1c(=S)[nH]c2ccccc2c1=O`: 271 to 272 °C.
Next, `CSc1cc(-c2ccc(F)cc2)n[nH]1`: 101 to 103 °C; `CN(C)CCOc1ccc(N)cc1`: 55 to 57 °C.
The compound `Oc1cccc(O)c1Cc1c(O)cccc1O` returned a melting point of 255 °C.
The same measure for `FC(Cl)(Cl)C(Cl)(Cl)Cl`: 101 °C; for `NC(Cc1c[nH]c2ccc(Br)cc12)C(=O)O` (racemic): 261 to 267 °C; for `CC1=C(C#N)C(c2cccc([N+](=O)[O-])c2)C(C(=O)OCCN(C)C)=C(C)N1` (stereo unspecified): 72 to 73 °C.
The same measure for `CC12CCC(=O)C=C1CCC1C2C(O)CC2(C=O)C(C(=O)CO)CCC12` (stereo unspecified): 167 °C; for `NC(=NO)c1cccc(Cl)c1Cl`: 139 to 140 °C.
Take `COc1cc(Oc2ccc(Cl)cc2Cl)ccc1[N+](=O)[O-]`: the melting point worked out at 114 °C.
The compound `C=CCC1(CC(=C)Br)C(=O)NC(=O)NC1=O` displayed a melting point of 168 °C.
As to `CC1=CCC(=O)Nc2c1cnn2-c1ccc(Cl)cc1`, the melting point was 177 to 178 °C.
Next, `C=CCc1cc(OC)c(OC)c(OC)c1OC`: 25 °C; `CN1C2CCC1CC(O)C2` (stereo unspecified): 109 °C.
In the case of `CC(=O)c1ccsc1`, the melting point was determined as 60 °C.
The same measure for `CCOC(=O)CCC(=O)O`: 8 °C; for `O=[N+]([O-])c1ccc2c(c1)OCCOCCOCCOCCO2`: 95 to 98 °C.
The same measure for `COc1cc(N)c(C(c2ccc(C)o2)c2ccc(C)o2)cc1OC`: 79 °C.
The same measure for `OCCC(F)(F)C(F)(F)C(F)(F)C(F)(F)C(F)(F)C(F)(F)C(F)(F)C(F)(F)C(F)(F)C(F)(F)F`: 92.7 °C; for `CC(C)(S)C(=O)O`: 47 °C.
For the compound `N#Cc1cc(Cl)ccc1Cl`, the melting point was in the range of 130 to 132 °C.
The same measure for `O=C(O)c1cc(F)c(F)cc1Cl`: 106 °C; for `CCCCCCCCOC=O`: -39.1 °C; for `BrC(Br)C(Br)Br`: 0 °C.
`Cc1cc(=O)oc2cc(O)c(O)cc12` registered a melting point of 275 °C.
Regarding `Cc1cc(N)n(C)n1`, the melting point was 75 °C.
The same measure for `COC(=O)c1ccc(N2CCN(C(=O)OC(C)(C)C)CC2)cc1`: 166 to 167 °C; for `COC(=O)c1sc2ccccc2c1N`: 107 to 108 °C.
Next, `Cc1nc(-c2ccc(C(F)(F)F)cc2)sc1CBr`: 64 to 65 °C; `CC(=O)Oc1ccc(OC(C)=O)c(-c2ccccc2)c1`: 68 °C.
Next, `O=C(O)C1Cc2ccccc2O1` (stereo unspecified): 117 to 118 °C.
As for `CCCCCCCCCCCC(=O)OCc1ccccc1`, the melting point stood at 8.5 °C.
Next, `O=C1C(=O)C(Br)=C(Br)C(Br)=C1Br`: 143 to 148 °C; `CN(C)c1nncc(-c2cnnc(N(C)C)n2)n1`: 224 °C; `CC(=O)c1[nH]c2ccccc2c1C`: 146 to 148 °C.
The same measure for `NC(=S)Cc1ccc(Cl)cc1`: 129 to 131 °C.
The same measure for `CC(C)(C)c1ccc(CCOc2ncnc3ccccc23)cc1`: 80.5 °C.
`O=C(Oc1c(F)c(F)c(F)c(F)c1F)c1ccc(OC2CCOCC2)nc1` displayed a melting point of 114 to 118 °C.
Next, `CCOC(=O)c1c(C)sc(Sc2ccccc2[N+](=O)[O-])c1OC(C)=O`: 130 to 131 °C.
The compound `COc1cc(O)c2c(=O)c(O)c(-c3ccc(O)c(O)c3)oc2c1` showed a melting point of 295 °C.
The same measure for `CC(O)[C@@]1(O)CC[C@H]2[C@@H]3CCC4(C)C[C@H](O)CC[C@]4(C)[C@H]3CC[C@@]21C` (stereo partly specified): 254 to 255 °C; for `Cc1cc(C(=O)O)cc(C(=O)O)c1`: 299 °C.
The same measure for `Cc1onc(-c2ccccc2)c1C(=O)Cl`: 24 to 25 °C; for `CC(=O)Nc1ccc(F)cc1F`: 122 °C.
Consider `CSC(=Nc1nnc(-c2ccc([N+](=O)[O-])cc2)s1)SC`, for which the melting point was greater than 250 °C.
`N#Cc1cc(F)ccc1Br` had a melting point of 90 °C.
Next, `Brc1c(Br)c(Br)c(-c2c(Br)c(Br)c(Br)c(Br)c2Br)c(Br)c1Br`: 375 °C; `S=P(N1CC1)(N1CC1)N1CC1`: 54 to 57 °C.
Next, `Nc1cccc(C(F)(F)F)n1`: 88 °C.
Next, `Cc1cc(C)c(C2Oc3c(Cl)c(Cl)c(Cl)c(Cl)c3O2)cc1C`: 188 °C.
In turn, `FC(F)(F)c1nn2c(=S)nc(-c3ccccc3)nc2s1` registered a melting point of 222 °C.
The same measure for `Cc1oc(S(=O)(=O)N2CCCC2)cc1C(=O)O`: 185 °C; for `COC(=O)c1scc(S(=O)(=O)Cc2ccco2)c1N`: 152 to 154 °C.

The melting point is the temperature, or range, at which the solid turns liquid.
